Data as given in PubChem BioAssay AID2743 (NMMLSC, 2010).
Values joined by “and” are separate entries in the source; they are usually repeats but may differ in a detail not shown here. Identical values can stand only once. Active and inactive are the calls of the source.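 How the source made its calls: active means fitted half-maximal concentration for change in GFP expression of 33 µM or less; inactive means the rest.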

Assay: concentration-dependent AGP1-GFP change, TOR pathway – cell-based, flow cytometry, S. cerevisiae, MLPCN hits, dose response (AID 2743)
Settings: S. cerevisiae AGP1-GFP strain, flow cytometry GFP, 3 h; at 33 µM (top of the series)

Row | SMILES | GFP fluorescence (kMESF)
1 | COc1ccc(/C=C2\C(=O)ON=C2c2ccccc2)cc1 | 28 kMESF (inactive)
2 | Cc1ccc(/C=C2/SC(=S)N(C3CCCCC3)C2=O)o1 | 41.3 kMESF (inactive)
3 | O=C(Nc1nc(-c2ccccn2)cs1)c1cc2ccccc2o1 | 38.7 kMESF (inactive)
4 | O/C=c1\ccc2cccc3nc(C(F)(F)F)nc1c23 | 40.7 kMESF (inactive)
5 | Cc1ccnc(N2C(=O)c3cccc4c([N+](=O)[O-])ccc(c34)C2=O)c1 | 54.7 kMESF (inactive)
6 | CC(=O)[C@]1(O)Cc2c(O)c3c(c(O)c2[C@@H](O[C@H]2C[C@H](N)[C@H](O)[C@H](C)O2)C1)C(=O)c1ccccc1C3=O | 33.4 kMESF (inactive)
7 | O=C(Nc1ccccc1)ON=C1CCCC1 | 21.6 kMESF (inactive)
8 | CCCc1cc(=O)oc2cc(C)cc(OCC(=O)NC3CC3)c12 | 41 kMESF (inactive)
9 | N#C/C(=C\c1cc(Br)ccc1F)C(=O)NC1CC1 | 30.6 kMESF (inactive)
10 | CN(C)C(=O)Oc1ccnc2cc(Cl)ccc12 | 42.3 kMESF (inactive)
11 | Cc1ccc(/C=C/C(=O)c2ccc([N+](=O)[O-])o2)cc1 | 42.9 kMESF (inactive)
12 | O=C1c2cccc3c([N+](=O)[O-])ccc(c23)C(=O)N1O | 40.9 kMESF (inactive)
13 | N/C(=N\OC(=O)c1cccc(Br)c1)c1ccccc1 | 21.7 kMESF (inactive)
14 | COc1ccc(N2C(=O)C(Cl)=C(Nc3c(C)n(C)n(-c4ccccc4)c3=O)C2=O)cc1 | 36.2 kMESF (inactive)
15 | Cc1cc(C(=O)Nc2nc(-c3ccccn3)cs2)ccc1[N+](=O)[O-] | 44.4 kMESF (inactive)
16 | CCOC(=O)CSC1=NC(=O)/C(=C\c2ccc(Cl)cc2)S1 | 41.8 kMESF (inactive)
17 | COc1cc(C=C2C(=O)c3ccccc3C2=O)cc(OC)c1 | 38 kMESF (inactive)
18 | O=C1C=C(Nc2ccc(Cl)cc2)C(=O)N1c1ccc(Cl)cc1 | 37.8 kMESF (inactive)
19 | O=C(O)C1Sc2[nH]c(=O)sc2C2c3cc(Br)ccc3OC(=O)C12 (centres undefined) | 38.7 kMESF (inactive)
20 | Cc1ccc(/C=C2\SC(=S)N(CC3CCCO3)C2=O)o1 (centres undefined) | 42 kMESF (inactive)
21 | CCOC(=O)C1=C(O)c2ccccc2C(=O)/C1=C\c1ccc(C)cc1 | -4.85 kMESF (inactive)
22 | CCn1c(=O)c(C(=O)Nc2nc3ccccc3[nH]2)c(O)c2ccccc21 | 12.8 kMESF (inactive)
23 | N#Cc1cc([N+](=O)[O-])c(-n2nnc3ccccc32)c([N+](=O)[O-])c1 | 41.5 kMESF (inactive)

Row | SMILES | GFP fluorescence (kMESF)
24 | O=C(Nc1cccc(-c2csc(Nc3ccccc3)n2)c1)c1ccccc1 | 31 kMESF (inactive)
25 | Oc1cc(-c2ccc(N3CCCCC3)nc2)cc2cccnc12 | 31.5 kMESF (inactive)
26 | O=C(NOC(=O)c1ccccc1)c1ccccc1 | 25.9 kMESF (inactive)
27 | CCN(CC(=O)Nc1cc(S(=O)(=O)N2CCOCC2)ccc1Cl)Cc1ccccc1 | 37.6 kMESF (inactive)
28 | Cc1cc(O)c(C(=O)/C=C/c2ccc(Cl)cc2)c(=O)o1 | 40.1 kMESF (inactive)
29 | COc1cc(/C=C2/C(=O)ON=C2c2ccccc2)ccc1O | 25 kMESF (inactive)
30 | COc1ccc(C(=O)/C=C2/C(=O)Nc3ccccc32)c(OC)c1 | 43.2 kMESF (inactive)
31 | Nc1c(C(=O)c2cccs2)sc2nsc(SCCN3CCCCC3)c12 | 35.6 kMESF (inactive)
32 | O=C(Nc1cccc(C(F)(F)F)c1)Oc1ccc(Cl)c2cccnc12 | 31.6 kMESF (inactive)
33 | CC(=O)Oc1cccc(N2C(=O)c3cccc4c([N+](=O)[O-])ccc(c34)C2=O)c1 | 31.2 kMESF (inactive)
34 | COc1cc(CNC(=O)CCCCCCC(C)C)ccc1O | 46.8 kMESF (inactive)
35 | [O-][n+]1cccc2c(Br)cc(Br)c(O)c21 | 50.1 kMESF (inactive)
36 | CCCCS(=O)(=O)/C=C\C=C/S(=O)(=O)CCCC | 26.3 kMESF (inactive)
37 | O=C1C(Cl)=C(N2CCN(Cc3ccccc3)CC2)C(=O)N1c1ccccc1 | 43.8 kMESF (inactive)
38 | Cc1[nH][nH]c(=O)c1C(c1ccc(-c2ccc(Cl)cc2)o1)c1c(C)[nH][nH]c1=O | 39.2 kMESF (inactive)
39 | Oc1ccc(COCc2ccccc2)c2cccnc12 | 36.3 kMESF (inactive)
40 | Cc1cc(C)c(OCC(=O)Nc2nc(-c3ccccn3)cs2)c(C)c1 | 28.8 kMESF (inactive)
41 | CCCS(=O)(=O)c1nnnn1-c1cccc(OC)c1 | 35.1 kMESF (inactive)
42 | Cc1ccc(C(=O)/C=C/C(=O)c2ccc(C)cc2)cc1 | 43.8 kMESF (inactive)
43 | CC1(C)OC(c2ccccc2)=C/C(=C/C=C2C(=O)NC(=S)NC2=O)O1 | 36.6 kMESF (inactive)
44 | O=c1[nH]c(-c2ccccn2)nc(C(F)(F)F)c1Br | 36.9 kMESF (inactive)
45 | CC(=O)Oc1oc(-c2ccccc2)nc1C=Nc1ccccc1 | 33.5 kMESF (inactive)
46 | O=C(Nc1ccc(O)cc1)C1CCCN1S(=O)(=O)c1ccc(F)cc1 (centres undefined) | 42.4 kMESF (inactive)

Row | SMILES | GFP fluorescence (kMESF)
47 | CC(Oc1ccc(Br)cc1)C(=O)Nc1nc(-c2ccccn2)cs1 (centres undefined) | 46.5 kMESF (inactive)
48 | COc1cccc2cc(-c3nc4ccccc4o3)c(=O)oc12 | 20.9 kMESF (inactive)
49 | O=C(OCC(=O)N1CCN(C(=O)c2ccco2)CC1)c1cc(-c2ccc(Cl)c(Cl)c2Cl)nc2ccccc12 | 50.9 kMESF (inactive)
50 | O=C(Nc1ccc(Cl)cc1)ON=C1CCCC1 | 28 kMESF (inactive)
51 | Cc1ccc(NC(=O)c2cc(N3C(=O)C=CC3=O)ccc2N2CCOCC2)cc1Cl | 36.2 kMESF (inactive)
52 | O=C(/C=C/c1cc(Br)ccc1O)c1ccco1 | 40.2 kMESF (inactive)
53 | Cc1cccc(C(=O)NC(=S)NNC(=O)Cc2ccccc2)c1 | 37.6 kMESF (inactive)
54 | Cc1ccc(-c2nc(N)c3c(-c4ccc(C)cc4)nn(C(C)(C)C)c3n2)cc1 | 38.4 kMESF (inactive)
55 | CC1=NNC(=O)/C1=C\c1cn(-c2ccccc2)nc1-c1ccccc1 | 40.4 kMESF (inactive)
56 | CC(Oc1ccc(Cl)cc1)C(=O)NNC(=S)NC(=O)c1ccco1 (centres undefined) | 34.2 kMESF (inactive)
57 | C#CCOCCOCCOCCNc1nc(N2CCN(C(=O)CCCCCCCCCCNC(=O)[C@H](CCCCN)n3cc(CCCC(=O)O)nn3)CC2)nc(N2CCN(C(=O)CCCCCCCCCCNC(=O)[C@H](CCCN=C(N)N)n3cc(C[C@@H](C)CC)nn3)CC2)n1 | 42.4 kMESF (inactive)
58 | COc1ccc(-c2cc3cc(C(=O)O)ccn3c2C(=O)c2ccccc2)cc1 | 43.2 kMESF (inactive)
59 | COc1ccc([N+](=O)[O-])c(S(=O)(=O)c2ccccc2)n1 | 47.5 kMESF (inactive)
60 | COc1cc(C=C2C(=O)c3ccccc3C2=O)cc(OC)c1OC | 38.9 kMESF (inactive)
61 | CCN(CC)c1ccc2cc(-c3nc(-c4ccc(OC)cc4)cs3)c(=O)oc2c1 | 40.6 kMESF (inactive)
62 | CCc1ccc(C(=O)/C=C/c2ccc([N+](=O)[O-])o2)cc1 | 49.5 kMESF (inactive)
63 | CC(Oc1cc2oc(=O)c3c(c2cc1Cl)CCC3)C(=O)NCCN1CCOCC1 (centres undefined) | 34.8 kMESF (inactive)
64 | O=C(OCC(=O)N1CCN(C(=O)c2ccco2)CC1)c1cc(-c2ccc(F)cc2)nc2ccccc12 | 49.9 kMESF (inactive) and 40 kMESF (inactive)
65 | O=C(/C=C/c1ccccc1Cl)c1ccccc(=O)c1O | 6.58 kMESF (inactive)
66 | C[C@H]1C[C@@H](C)C(=O)[C@@H]([C@H](O)CC2CC(=O)NC(=O)C2)C1 | 25.3 kMESF (inactive)
67 | C[C@@]12C(=O)OC(=O)[C@]1(C)C1CCC2O1 | 32.6 kMESF (inactive)
68 | Oc1ccc(CNc2ccccc2)c2cccnc12 | 36.5 kMESF (inactive)
69 | C=CCOc1cccc(C(=O)/C=C2/C(=O)Nc3ccccc32)c1 | 43.2 kMESF (inactive)

Row | SMILES | GFP fluorescence (kMESF)
70 | COc1ccc(/C=C/C(=O)NC(=S)NNC(=O)c2cnccn2)cc1 | 38.3 kMESF (inactive)
71 | N/C(=N\OC(=O)c1ccc(Cl)cc1Cl)c1ccccc1 | 27.3 kMESF (inactive)
72 | O=c1c(-c2ccc(Cl)cc2)[n+]([O-])c2ccccc2n1O | 38.1 kMESF (inactive)
73 | O=C1c2cccc3c([N+](=O)[O-])ccc(c23)C(=O)N1CCc1ccccn1 | 44.1 kMESF (inactive)
74 | COc1ccc([N+](=O)[O-])c(S(=O)(=O)c2ccc(Cl)cc2)n1 | 37.1 kMESF (inactive)
75 | O=[N+]([O-])c1cc(Cl)cc(/C=N\Nc2ccccn2)c1O | 30.3 kMESF (inactive)
76 | CCn1c(/C=C/c2ccc([N+](=O)[O-])o2)nc2ccccc2c1=O | -51 kMESF (inactive)
77 | COc1ccc(C2=CC(=O)N(Nc3ccccc3)C2=O)cc1 | 39.9 kMESF (inactive)
78 | O=C1ON=C(c2ccc(Cl)cc2)/C1=C/c1ccc(O)cc1 | 23.3 kMESF (inactive)
79 | COc1ccc(C=C2C(=O)c3ccccc3C2=O)cc1O | 34.7 kMESF (inactive)
80 | O=C(COc1ccccc1)NNC(=S)NC(=O)c1ccc(Cl)cc1Cl | 29.9 kMESF (inactive)
81 | CC[C@]1(c2ccccc2OC)ON(c2ccccc2C(F)(F)F)C1=O | 32.6 kMESF (inactive)
82 | Cc1ccc(C(=O)Oc2oc(-c3ccccc3)nc2C=Nc2ccc(N(C)C)cc2)cc1 | 39.3 kMESF (inactive)
83 | Cc1cc(Br)c2c(c1)/C(=C/C(=O)c1cccs1)C(=O)N2 | 38.7 kMESF (inactive)
84 | O=[N+]([O-])c1cc(CN2CCN(c3ccccc3)CC2)c(O)c2ncccc12 | 27 kMESF (inactive)
85 | O=C(NC(=S)NNC(=O)c1cnccn1)c1ccc(F)cc1 | 37.3 kMESF (inactive)
86 | Cc1cc(C2CCCCC2)n(O)c(=O)c1 | 37.5 kMESF (inactive)
87 | COc1cccc(N=Cc2nc(-c3ccccc3)oc2OC(C)=O)c1 | 35.9 kMESF (inactive)
88 | Cc1c(NC2=C(Cl)C(=O)N(c3ccccc3)C2=O)c(=O)n(-c2ccccc2)n1C | 41.3 kMESF (inactive)
89 | CCC1(c2ccccc2)ON(c2c(Br)cccc2Br)C1=O (centres undefined) | 28.9 kMESF (inactive)
